This is an account of results in PMC3038380 (Bioorganic & Medicinal Chemistry, 2010).

A short description of data set [1]: NMR chemical shift titration with DPC-d38. Format: binding. Particulars: pH 5.0, 1.0 mM octanoic acid or 1.14 mM ghrelin.
The conditions of data set [2]: free C8 fatty acid; cited from earlier work.

As to `CCCCCCCC(=O)O` [octanoic acid], in data set [1], the “unitary Gibbs free energy ΔGu0 of binding to DPC micelles” value is -8.6 kcal/mol. The “free energy for the transfer from aqueous into a hydrophobic environment” value in data set [2] was -1.5 kcal/mol.
